Experimental data as given in publication PMC12454493, “Insight on novel sulfamoylphenyl pyrazole derivatives as anticancer carbonic anhydrase inhibitors” (Molecular Diversity, 2024).

Tests used:
CCRF-CEM = assay: NCI-60 one-dose SRB screen (Leukemia); format: cell-based; conditions: Homo sapiens, single dose 10 µM, 48 h, read-out: Growth inhibition percent (GI %)
SR = assay: NCI-60 one-dose SRB screen (Leukemia); format: cell-based; conditions: Homo sapiens, single dose 10 µM, 48 h, read-out: Growth inhibition percent (GI %)
RPMI-8226 = assay: NCI-60 one-dose SRB screen (Leukemia); format: cell-based; conditions: Homo sapiens, single dose 10 µM, 48 h, read-out: Growth inhibition percent (GI %)
MOLT-4 = assay: NCI-60 one-dose SRB screen (Leukemia); format: cell-based; conditions: Homo sapiens, single dose 10 µM, 48 h, read-out: Growth inhibition percent (GI %)
HL-60(TB) = assay: NCI-60 one-dose SRB screen (Leukemia); format: cell-based; conditions: Homo sapiens, single dose 10 µM, 48 h, read-out: Growth inhibition percent (GI %)
K-562 = assay: NCI-60 one-dose SRB screen (Leukemia); format: cell-based; conditions: Homo sapiens, K562, single dose 10 µM, 48 h, read-out: Growth inhibition percent (GI %)
M14 = assay: NCI-60 one-dose SRB screen (Melanoma); format: cell-based; conditions: Homo sapiens, single dose 10 µM, 48 h, read-out: Growth inhibition percent (GI %)
SK-MEL-5 = assay: NCI-60 one-dose SRB screen (Melanoma); format: cell-based; conditions: Homo sapiens, single dose 10 µM, 48 h, read-out: Growth inhibition percent (GI %)
MDA-MB-435 = assay: NCI-60 one-dose SRB screen (Melanoma); format: cell-based; conditions: Homo sapiens, single dose 10 µM, 48 h, read-out: Growth inhibition percent (GI %)
UACC-62 = assay: NCI-60 one-dose SRB screen (Melanoma); format: cell-based; conditions: Homo sapiens, single dose 10 µM, 48 h, read-out: Growth inhibition percent (GI %)
MALME-3M = assay: NCI-60 one-dose SRB screen (Melanoma); format: cell-based; conditions: Homo sapiens, single dose 10 µM, 48 h, read-out: Growth inhibition percent (GI %)
SK-MEL-2 = assay: NCI-60 one-dose SRB screen (Melanoma); format: cell-based; conditions: Homo sapiens, single dose 10 µM, 48 h, read-out: Growth inhibition percent (GI %)
UACC-257 = assay: NCI-60 one-dose SRB screen (Melanoma); format: cell-based; conditions: Homo sapiens, single dose 10 µM, 48 h, read-out: Growth inhibition percent (GI %)
LOX IMVI = assay: NCI-60 one-dose SRB screen (Melanoma); format: cell-based; conditions: Homo sapiens, single dose 10 µM, 48 h, read-out: Growth inhibition percent (GI %)
SK-MEL-28 = assay: NCI-60 one-dose SRB screen (Melanoma); format: cell-based; conditions: Homo sapiens, single dose 10 µM, 48 h, read-out: Growth inhibition percent (GI %)
NCI-H23 = assay: NCI-60 one-dose SRB screen (Non-Small Cell Lung Cancer); format: cell-based; conditions: Homo sapiens, single dose 10 µM, 48 h, read-out: Growth inhibition percent (GI %)
HOP-92 = assay: as above; format: cell-based; conditions: Homo sapiens, single dose 10 µM, 48 h, read-out: Growth inhibition percent (GI %)
NCI-H460 = assay: as above; format: cell-based; conditions: Homo sapiens, single dose 10 µM, 48 h, read-out: Growth inhibition percent (GI %)
HOP-62 = assay: as above; format: cell-based; conditions: Homo sapiens, single dose 10 µM, 48 h, read-out: Growth inhibition percent (GI %)
EKVX = assay: as above; format: cell-based; conditions: Homo sapiens, single dose 10 µM, 48 h, read-out: Growth inhibition percent (GI %)
NCI-H226 = assay: as above; format: cell-based; conditions: Homo sapiens, single dose 10 µM, 48 h, read-out: Growth inhibition percent (GI %)
NCI-H322M = assay: as above; format: cell-based; conditions: Homo sapiens, single dose 10 µM, 48 h, read-out: Growth inhibition percent (GI %)
NCI-H522 = assay: as above; format: cell-based; conditions: Homo sapiens, single dose 10 µM, 48 h, read-out: Growth inhibition percent (GI %)
A549/ATCC = assay: as above; format: cell-based; conditions: Homo sapiens, single dose 10 µM, 48 h, read-out: Growth inhibition percent (GI %)
PC-3 = assay: NCI-60 one-dose SRB screen (Prostate Cancer); format: cell-based; conditions: Homo sapiens, single dose 10 µM, 48 h, read-out: Growth inhibition percent (GI %)
DU-145 = assay: NCI-60 one-dose SRB screen (Prostate Cancer); format: cell-based; conditions: Homo sapiens, single dose 10 µM, 48 h, read-out: Growth inhibition percent (GI %)
SNB-75 = assay: NCI-60 one-dose SRB screen (CNS Cancer); format: cell-based; conditions: Homo sapiens, single dose 10 µM, 48 h, read-out: Growth inhibition percent (GI %)
U251 = assay: NCI-60 one-dose SRB screen (CNS Cancer); format: cell-based; conditions: Homo sapiens, U-251, single dose 10 µM, 48 h, read-out: Growth inhibition percent (GI %)
SF-539 = assay: NCI-60 one-dose SRB screen (CNS Cancer); format: cell-based; conditions: Homo sapiens, single dose 10 µM, 48 h, read-out: Growth inhibition percent (GI %)
SF-295 = assay: NCI-60 one-dose SRB screen (CNS Cancer); format: cell-based; conditions: Homo sapiens, single dose 10 µM, 48 h, read-out: Growth inhibition percent (GI %)
SF-268 = assay: NCI-60 one-dose SRB screen (CNS Cancer); format: cell-based; conditions: Homo sapiens, single dose 10 µM, 48 h, read-out: Growth inhibition percent (GI %)
SNB-19 = assay: NCI-60 one-dose SRB screen (CNS Cancer); format: cell-based; conditions: Homo sapiens, single dose 10 µM, 48 h, read-out: Growth inhibition percent (GI %)
hCA XII = hCA XII (Homo sapiens, UniProt O43570); assay: CA inhibitory activity, spectrophotometric p-NPA assay; format: biochemical; conditions: p-NPA substrate, pH 7.5, 25 °C, triplicate; read-out: IC50 (µM) ± SD hCA XII
OVCAR-3 = assay: NCI-60 one-dose SRB screen (Ovarian cancer); format: cell-based; conditions: Homo sapiens, single dose 10 µM, 48 h, read-out: Growth inhibition percent (GI %)
OVCAR-8 = assay: NCI-60 one-dose SRB screen (Ovarian cancer); format: cell-based; conditions: Homo sapiens, single dose 10 µM, 48 h, read-out: Growth inhibition percent (GI %)
SK-OV-3 = assay: NCI-60 one-dose SRB screen (Ovarian cancer); format: cell-based; conditions: Homo sapiens, single dose 10 µM, 48 h, read-out: Growth inhibition percent (GI %)
OVCAR-5 = assay: NCI-60 one-dose SRB screen (Ovarian cancer); format: cell-based; conditions: Homo sapiens, single dose 10 µM, 48 h, read-out: Growth inhibition percent (GI %)
IGROV1 = assay: NCI-60 one-dose SRB screen (Ovarian cancer); format: cell-based; conditions: Homo sapiens, IGROV-1, single dose 10 µM, 48 h, read-out: Growth inhibition percent (GI %)
OVCAR-4 = assay: NCI-60 one-dose SRB screen (Ovarian cancer); format: cell-based; conditions: Homo sapiens, single dose 10 µM, 48 h, read-out: Growth inhibition percent (GI %)
NCI/ADR-RES = assay: NCI-60 one-dose SRB screen (Ovarian cancer); format: cell-based; conditions: Homo sapiens, single dose 10 µM, 48 h, read-out: Growth inhibition percent (GI %)
BT-549 = assay: NCI-60 one-dose SRB screen (Breast Cancer); format: cell-based; conditions: Homo sapiens, single dose 10 µM, 48 h, read-out: Growth inhibition percent (GI %)
HS 578T = assay: NCI-60 one-dose SRB screen (Breast Cancer); format: cell-based; conditions: Homo sapiens, single dose 10 µM, 48 h, read-out: Growth inhibition percent (GI %)
MDA-MB-231/ATCC = assay: NCI-60 one-dose SRB screen (Breast Cancer); format: cell-based; conditions: Homo sapiens, single dose 10 µM, 48 h, read-out: Growth inhibition percent (GI %)
MCF-7 = assay: NCI-60 one-dose SRB screen (Breast Cancer); format: cell-based; conditions: Homo sapiens, MCF7, single dose 10 µM, 48 h, read-out: Growth inhibition percent (GI %)
MDA-MB-468 = assay: NCI-60 one-dose SRB screen (Breast Cancer); format: cell-based; conditions: Homo sapiens, single dose 10 µM, 48 h, read-out: Growth inhibition percent (GI %)
T-47D = assay: NCI-60 one-dose SRB screen (Breast Cancer); format: cell-based; conditions: Homo sapiens, T47D, single dose 10 µM, 48 h, read-out: Growth inhibition percent (GI %)
SW-620 = assay: NCI-60 one-dose SRB screen (Colon Cancer); format: cell-based; conditions: Homo sapiens, single dose 10 µM, 48 h, read-out: Growth inhibition percent (GI %)
HCT-116 = assay: NCI-60 one-dose SRB screen (Colon Cancer); format: cell-based; conditions: Homo sapiens, single dose 10 µM, 48 h, read-out: Growth inhibition percent (GI %)
HCC-2998 = assay: NCI-60 one-dose SRB screen (Colon Cancer); format: cell-based; conditions: Homo sapiens, single dose 10 µM, 48 h, read-out: Growth inhibition percent (GI %)
HCT-15 = assay: NCI-60 one-dose SRB screen (Colon Cancer); format: cell-based; conditions: Homo sapiens, single dose 10 µM, 48 h, read-out: Growth inhibition percent (GI %)
HT29 = assay: NCI-60 one-dose SRB screen (Colon Cancer); format: cell-based; conditions: Homo sapiens, HT-29, single dose 10 µM, 48 h, read-out: Growth inhibition percent (GI %)
KM12 = assay: NCI-60 one-dose SRB screen (Colon Cancer); format: cell-based; conditions: Homo sapiens, single dose 10 µM, 48 h, read-out: Growth inhibition percent (GI %)
COLO 205 = assay: NCI-60 one-dose SRB screen (Colon Cancer); format: cell-based; conditions: Homo sapiens, single dose 10 µM, 48 h, read-out: Growth inhibition percent (GI %)
786-0 = assay: NCI-60 one-dose SRB screen (Renal Cancer); format: cell-based; conditions: Homo sapiens, single dose 10 µM, 48 h, read-out: Growth inhibition percent (GI %)
RXF 393 = assay: NCI-60 one-dose SRB screen (Renal Cancer); format: cell-based; conditions: Homo sapiens, single dose 10 µM, 48 h, read-out: Growth inhibition percent (GI %)
TK-10 = assay: NCI-60 one-dose SRB screen (Renal Cancer); format: cell-based; conditions: Homo sapiens, single dose 10 µM, 48 h, read-out: Growth inhibition percent (GI %)
ACHN = assay: NCI-60 one-dose SRB screen (Renal Cancer); format: cell-based; conditions: Homo sapiens, single dose 10 µM, 48 h, read-out: Growth inhibition percent (GI %)
UO-31 = assay: NCI-60 one-dose SRB screen (Renal Cancer); format: cell-based; conditions: Homo sapiens, single dose 10 µM, 48 h, read-out: Growth inhibition percent (GI %)
CAKI-1 = assay: NCI-60 one-dose SRB screen (Renal Cancer); format: cell-based; conditions: Homo sapiens, single dose 10 µM, 48 h, read-out: Growth inhibition percent (GI %)
A498 = assay: NCI-60 one-dose SRB screen (Renal Cancer); format: cell-based; conditions: Homo sapiens, single dose 10 µM, 48 h, read-out: Growth inhibition percent (GI %)

hCA XII, sequence (O43570 25-354): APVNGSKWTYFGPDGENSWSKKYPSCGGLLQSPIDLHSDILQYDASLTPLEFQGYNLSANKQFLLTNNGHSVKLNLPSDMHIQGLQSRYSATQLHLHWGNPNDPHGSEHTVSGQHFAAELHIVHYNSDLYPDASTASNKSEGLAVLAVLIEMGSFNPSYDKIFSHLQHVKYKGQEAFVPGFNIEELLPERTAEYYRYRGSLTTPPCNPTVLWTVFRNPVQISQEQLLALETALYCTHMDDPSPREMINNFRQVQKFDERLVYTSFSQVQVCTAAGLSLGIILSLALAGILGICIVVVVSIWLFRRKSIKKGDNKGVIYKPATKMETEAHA

## COc1ccc(-c2nn(-c3ccc(S(N)(=O)=O)cc3)cc2C(=O)NNC(N)=S)cc1 [Compound 9c, 2-[3-(4-Methoxyphenyl)-1-(4-sulfamoylphenyl)-1H-pyrazole-4-carbonyl] hydrazine-1-carbothioamide]
CCRF-CEM
  inhibition at 10 µM: < 5%
SR
  inhibition at 10 µM: < 5%
RPMI-8226
  inhibition at 10 µM: < 5%
MOLT-4
  inhibition at 10 µM: < 5%
HL-60(TB)
  inhibition at 10 µM: < 5%
K-562
  inhibition at 10 µM: < 5%
M14
  inhibition at 10 µM: < 5%
SK-MEL-5
  inhibition at 10 µM: < 5%
MDA-MB-435
  inhibition at 10 µM: < 5%
UACC-62
  inhibition at 10 µM: 8.41%
MALME-3M
  inhibition at 10 µM: < 5%
SK-MEL-2
  inhibition at 10 µM: < 5%
UACC-257
  inhibition at 10 µM: < 5%
LOX IMVI
  inhibition at 10 µM: < 5%
SK-MEL-28
  inhibition at 10 µM: < 5%
NCI-H23
  inhibition at 10 µM: < 5%
HOP-92
  inhibition at 10 µM: < 5%
NCI-H460
  inhibition at 10 µM: < 5%
HOP-62
  inhibition at 10 µM: < 5%
EKVX
  inhibition at 10 µM: < 5%
NCI-H226
  inhibition at 10 µM: < 5%
NCI-H322M
  inhibition at 10 µM: < 5%
NCI-H522
  inhibition at 10 µM: 8.06%
A549/ATCC
  inhibition at 10 µM: < 5%
PC-3
  inhibition at 10 µM: < 5%
DU-145
  inhibition at 10 µM: < 5%
SNB-75
  inhibition at 10 µM: < 5%
U251
  inhibition at 10 µM: < 5%
SF-539
  inhibition at 10 µM: < 5%
SF-295
  inhibition at 10 µM: < 5%
SF-268
  inhibition at 10 µM: < 5%
SNB-19
  inhibition at 10 µM: < 5%
hCA XII
  IC50: 0.168 ± 0.006 µM
other
  melting point: 205 to 207 °C
OVCAR-3
  inhibition at 10 µM: < 5%
OVCAR-8
  inhibition at 10 µM: < 5%
SK-OV-3
  inhibition at 10 µM: < 5%
OVCAR-5
  inhibition at 10 µM: < 5%
IGROV1
  inhibition at 10 µM: < 5%
OVCAR-4
  inhibition at 10 µM: < 5%
NCI/ADR-RES
  inhibition at 10 µM: < 5%
BT-549
  inhibition at 10 µM: < 5%
HS 578T
  inhibition at 10 µM: < 5%
MDA-MB-231/ATCC
  inhibition at 10 µM: < 5%
MCF-7
  inhibition at 10 µM: < 5%
MDA-MB-468
  inhibition at 10 µM: < 5%
T-47D
  inhibition at 10 µM: < 5%
SW-620
  inhibition at 10 µM: < 5%
HCT-116
  inhibition at 10 µM: < 5%
HCC-2998
  inhibition at 10 µM: < 5%
HCT-15
  inhibition at 10 µM: < 5%
HT29
  inhibition at 10 µM: < 5%
KM12
  inhibition at 10 µM: < 5%
COLO 205
  inhibition at 10 µM: < 5%
786-0
  inhibition at 10 µM: < 5%
RXF 393
  inhibition at 10 µM: < 5%
TK-10
  inhibition at 10 µM: < 5%
ACHN
  inhibition at 10 µM: < 5%
UO-31
  inhibition at 10 µM: < 5%
CAKI-1
  inhibition at 10 µM: < 5%
A498
  inhibition at 10 µM: < 5%
